Where no end group is shown, it is not given here.
Experiments:
Type in all cases: cell-based, human
[1] = tested on: circulating CD8+ T cells; assay: Ex vivo combinatorial HLA-A2 multimer (MMr) staining of PBMCs; details: for frequency of circulating MMr+ CD8+ T cells (in words): HLA-A2+ recent-onset T1D and healthy subjects; for median frequency in peripheral blood: T1D patients, fraction of CD8+ T cells
Protocol: All peptides were synthesized at >90% purity (Synpeptides). HLA-A2 MMrs were produced as described (Leisner et al., 2008) and staining performed in the presence of 50 nM dasatinib (Lissina et al., 2009), as described (Culina et al., 2018). Briefly, cryopreserved PBMCs were magnetically depleted of CD8^− cells (StemCell Technologies), stained with the combinatorial MMr panels (Hadrup et al., 2009) and acquired using a FACSAria III cytometer.

[2] = tested on: pancreas-infiltrating cells of HLA-A2+ T1D patients; assay: In-situ HLA-A2 MMr staining on pancreas sections; details: 2 HLA-A2+ T1D cases, nPOD tissue sections
Protocol: In-situ staining was performed as described (Culina et al., 2018). Unfixed, frozen sections were dried for 2 h, loaded with 1 μg of MMrs overnight at 4° C., washed gently with phosphate-buffered saline and fixed in 2% paraformaldehyde for 10 min. After a further wash, endogenous peroxidase activity was blocked with 0.3% H2O2. Sections were then incubated serially with rabbit anti-phycoerythrin, horseradish peroxidase-conjugated swine anti-rabbit and 3,3′-diaminobenzidine tetrahydrochloride substrate (ThermoFisher). After a final wash, sections were counterstained with hematoxylin, dehydrated via sequential passages in 95-100% ethanol and xylene, mounted and analyzed using a Nikon Eclipse Ni microscope with NIS-Elements Analysis D software v4.40.

[3] = tested on: circulating CD8+ T cells; assay: Ex vivo HLA-A3 multimer (MMr) staining of PBMCs; details: for positive hits for the HLA-A3 restriction: HLA-A3+ T1D and healthy donors
Protocol: HLA-A3 MMrs were produced and used as described (Gonzalez-Duque, Cell Metab 2018). Each peptide-HLA-A3 complex was used at a final concentration of 8-27 nM and conjugated with fluorochrome-labeled streptavidin at a 1:4 ratio. The concentration of each fluorescent MMr was corrected for the variable staining index of each streptavidin, in order to obtain a distinct double-MMr+ population for each fluorochrome pair. Compensations were set using fluorescence-minus-one samples (i.e. omitting one streptavidin at a time).
PBMCs were thawed at 37° C. and immediately diluted in pre-warmed AIM-V medium. Following centrifugation and one additional wash in AIM-V, PBMCs were counted and rested in the presence of 50 nM dasatinib for 30 min at 37° C. to prevent internalization of T-cell receptors before magnetic depletion of CD8^− cells (StemCell Technologies). Staining was performed for 20 min at 20° C. in […] PBS-dasatinib for 10^7 cells with combinatorial double-coded MMr panels, followed, without washing, by CD3-APC-H7 (RRID AB_1645475), CD8-PE-Cy7 (AB_396852), CD45RA-FITC (AB_395879), CCR7-BV421 (AB_2728119) monoclonal antibodies and Live/Dead Aqua (ThermoFisher) staining at 4° C. for 20 min. After one wash, cells were acquired using a FACSAria III cytometer. […] Flow cytometry data were analyzed with FlowJo v10 and Graphpad Prism 7.0 software. Cells were sequentially gated on small lymphocytes, singlets, live cells (Live/Dead Aqua^−), CD3^+CD8^+ T cells and total PE^+, PE-CF594^+, APC^+, BV650^+, BV711^+ and BV786^+MMr^+ T cells. Using Boolean operators, these latter gates allowed to selectively visualize each double-MMr^+ population by including only those events positive for the corresponding fluorochrome pair. For example, SCG3166-174 MMr^+ cells (PE^+PE-CF594^+) were visualized by gating on events that were PE^+PE-CF594^+APC^−BV650^−BV711^−BV786^−. Events negative for all MMr fluorochromes (PE^−PE-CF594^−APC^−BV650^−BV711^−BV786^−) were represented in the same PE/PE-CF-594 dot plot to set the double-MMr^+ gate. CD45RA and CCR7 staining was subsequently visualized by gating on these MMr^+ cells.

[4] = HLA-A2+ healthy donors, screening

Substance	cognate naïve CD8+ T-cell repertoire (frequency 1-50/10^6 CD8+ T cells, clustered MMr staining, in ≥50% of individuals) [1, 4]	positive hits for the HLA-A3 restriction [3]	other results
CHGA344-352: HLA-A2-restricted HLA-eluted β-cell peptide from chromogranin A, maps to the WE-14 neuropeptide (KMDQLAKEL)	validated		
FLSGAVNRL	validated		frequency of circulating MMr+ CD8+ T cells (in words) [1]: particularly high and clustered
IAPP15-17/IAPP5-10: peptide splice product from fusion of IAPP15-17 and IAPP5-10, HLA-A2-restricted (VALKLQVFL)			in-situ MMr staining of pancreas sections [2]: MMr^+ cells could be detected; recognition by circulating CD8+ T cells, donors [1, 4]: 1 of 6; median frequency in peripheral blood [1]: 1.6×10^−6
ISL1276-284: HLA-A2-restricted HLA-eluted peptide from insulin gene enhancer protein ISL1 (GLQANPVEV)	validated		in-situ MMr staining of pancreas sections [2]: MMr^+ cells could be detected; median frequency in peripheral blood [1]: 7.2×10^−6
KCNK16129-137: HLA-A2-restricted HLA-eluted β-cell peptide from KCNK16 (ALLGIPLNV)	validated		
KIF1A860-868: HLA-A3-restricted islet peptide from KIF1A (LLYPVPLVH)		positive hits	
KIF1A1347-1355: HLA-A2-restricted HLA-eluted β-cell peptide from kinesin family member 1A (VLDTSVAYV)	validated		
PCSK230-38: HLA-A2-restricted HLA-eluted β-cell peptide from proprotein convertase 2 (FTNHFLVEL)	validated		
PNMA250-58: HLA-A3-restricted islet peptide candidate, not validated (RLLGKIFRK)			validation as CD8+ T-cell epitopes ([3]; second validation round, PBMCs from T1D and healthy donors): single exception
PTPRN576-580/708-711: spliced peptide derived from the fusion of two non-contiguous IA-2 sequences, HLA-A3 (SVLLTRLAK)		identified	
RLKPSLVGK		positive hits	
SCG3166-174: HLA-A3-restricted islet peptide from secretogranin III (AVFDKIVSK)		positive hits	
UCN31-9: HLA-A2-restricted HLA-eluted β-cell peptide from urocortin-3 leader sequence (MLMPVHFLL)	validated		frequency of circulating MMr+ CD8+ T cells (in words) [1]: particularly high and clustered
UCN346-56: HLA-A3-restricted islet peptide from urocortin-3 (GQWEDASLLSK)		positive hits	
YLQGQRLDNV	validated		
ZnT8186-184: positive control islet peptide (VAANIVLTV; UniProt Q8IWU4 186-194, looked up, fragment) [reference compound]			in-situ MMr staining of pancreas sections [2]: observed
